Converted amounts (≈) assume the structure as drawn. “And” between values parts separate entries of the source, which are not always exact repeats. Equal values may be shown once. Bridge positions count the residues as written; N and C are the ends. Square brackets hold non-standard residues; d marks the D form. Peptide text beside a SMILES is read from it. * marks the point of attachment. Ileψ(thiazoline)Cys = CC[C@H](C)[C@H](N)C1=N[C@H](C(=O)*)CS1; dOrn = NCCC[C@@H](N)C(=O)O
Legend:
[1] = tested on: Micrococcus uteus; conditions: as obtained from Apothekernes Laboratorium A.S; cited from earlier work
[2] = tested on: E. histolytica axenic cultures (NIH:200); assay: Axenic culture study of E. histolytica (NIH:200), cell number reduction; assay type: cell-based, Entamoeba histolytica; conditions: axenic culture
Experimental: Axenic cultures are isolates of amoeba which have been adapted for growth in the absence of bacteria, i.e. they comprise sterile cultures. E. histolytica axenic cultures (NIH:200) were maintained according to the method of Diamond, J. Parasitol. 54, 1047-56 (1968) in TP-S-1 medium modified by replacing the vitamin solution with 2.5% NCTC 135. […] Amoebae were harvested by cooling tubes at 4° C. for 20 minutes in an ice-bath prior to centrifugation at 1,000 rpm for 8 minutes at 4° C. Assays were performed over 36-48 hours, rather than the 24 hour period used for xenic cultures, due to the more extended division time of axenic cultures. All assays were performed in triplicate.

[3] = tested on: Tritrichomonas gallinae; assay: Tritrichomonas gallinae assay (MLC); assay type: cell-based; conditions: isolate GH85
Experimental: A single T. gallinae isolate was collected and treated with bacitracin or zinc bacitracin in accordance with the procedure of Example IV. Duplicate plates of the isolate were prepared. one plate was exposed to an aerobic environment. The second plate was exposed to an anaerobic environment.

[4] = tested on: Trichomonas vaginalis; assay: Trichomonas vaginalis assay (MLC, aerobic and anaerobic); assay type: cell-based
Experimental: (§1) All isolates were treated with either bacitracin or zinc bacitracin.
(§2) Prior to being diluted with the medium, the bacitracins were initially solubilized in water to 250 mg/ml. The zinc salt was solubilized in acidified water (60 μl HC1/ml). Duplicate plates of each isolate were prepared. one set of plates was exposed to an aerobic environment; and, the second set was exposed to an anaerobic environment. An Oxoid HP 11 anaerobic gas chamber and BR 38 gas generating kit were used to produce the anaerobic environment.

[5] = tested on: Giardia lamblia; assay type: cell-based
Experimental: A Portland isolate of G. lamblia was treated with bacitracin and zinc bacitracin according to the procedure of Example IV. An Oxoid HP 11 anaerobic gas chamber and BR 38 gas generating kit were used to produce an anaerobic environment. […] The parasites were incubated in the presence of the treating reagent for 2 4 hours. The viability of the parasites was based on morphology and motility.

[6] = tested on: Tritrichomonas foetus; assay: Tritrichomonas foetus assay (MLC); assay type: cell-based
Experimental: Duplicate plates of each isolate were prepared. One set of plates was exposed to an aerobic environment; and, the second set was exposed to an anaerobic environment. An Oxoid HP 11 anaerobic gas chamber and BR 38 gas generating kit were used to produce the anaerobic environment. […]

[7] = tested on: Trichomonas vaginalis; assay: Trichomonas vaginalis assay of other divalent metal salts of bacitracin (MIC); assay type: cell-based
Experimental: as §1, §2
The procedure of Example IV was repeated, substituting bacitracin salts of the following metals for zinc bacitracin: nickel, cadmium, cobalt, manganese, copper and iron. The MLCs of the bacitracin salts were out of range. However, the MICs indicate that, with the exception of ferrous bacitracin, complexation with a divalent metal salt enhanced the activity of bacitracin.

[8] = Portland isolate, anaerobic, 24 hours, two lines of values

CC[C@H](C)[C@H](N)C1=N[C@H](C(=O)N[C@@H](CC(C)C)C(=O)N[C@H](CCC(=O)O)C(=O)N[C@H](C(=O)N[C@H]2CCCCNC(=O)[C@H](CC(N)=O)NC(=O)[C@@H](CC(=O)O)NC(=O)[C@H](Cc3cnc[nH]3)NC(=O)[C@@H](Cc3ccccc3)NC(=O)[C@H]([C@@H](C)CC)NC(=O)[C@@H](CCCN)NC2=O)[C@@H](C)CC)CS1 [Bacitracin, reference compound] ({Ileψ(thiazoline)Cys}-L[dE]IK[dOrn]I[dF]H[dD]N; lactam 4-C)
Potency of the material used [1]: 70 I.U./mg
Cell number reduction compared to controls ([2]; 2.5 mg/ml): 76.4%
Cell number reduction compared to controls ([2]; 5 mg/ml): 92.3%
Cell number reduction compared to controls ([2]; 10 mg/ml): 97.7%
Cell number reduction compared to controls ([2]; 15 mg/ml): 99.9%
killing of amoeba ([2]; 20 mg/ml, 48 hours): All amoeba were killed
MLC ([3]; aerobic): 2000 IU/ml
MLC ([3]; anaerobic): 1500 IU/ml
MLC ([3]; span depending upon culture conditions): 1,500-2,000 IU/ml
MLC ([3]; span depending upon culture conditions, converted from IU/ml): 21.43 to 28.57 mg/mL
MLC ([4]; isolate 1031, metronidazole-sensitive, aerobic): 2000 IU/ml
MLC ([4]; isolate 1031, metronidazole-sensitive, anaerobic): 2000 IU/ml
MLC ([4]; isolate 1043, metronidazole-sensitive, aerobic): 2500 IU/ml
MLC ([4]; isolate 1043, metronidazole-sensitive, anaerobic): 2000 IU/ml
MLC ([4]; isolate 1044, metronidazole-sensitive, aerobic): 2000 IU/ml
MLC ([4]; isolate 1044, metronidazole-sensitive, anaerobic): 2000 IU/ml
MLC ([4]; isolate 1064, metronidazole-sensitive, aerobic): 1500 IU/ml
MLC ([4]; isolate 1064, metronidazole-sensitive, anaerobic): 1500 IU/ml
MLC ([4]; isolate 1065, metronidazole-sensitive, aerobic): 2000 IU/ml
MLC ([4]; isolate 1065, metronidazole-sensitive, anaerobic): 2000 IU/ml
MLC ([4]; isolate 1165, metronidazole-sensitive, aerobic): 2000 IU/ml
MLC ([4]; isolate 1165, metronidazole-sensitive, anaerobic): 2000 IU/ml
MLC ([4]; isolate 1910, metronidazole-sensitive, aerobic): 2000 IU/ml
MLC ([4]; isolate 1910, metronidazole-sensitive, anaerobic): 2000 IU/ml
MLC ([4]; isolate 6950, metronidazole-sensitive, aerobic): 2000 IU/ml
MLC ([4]; isolate 6950, metronidazole-sensitive, anaerobic): 2000 IU/ml
MLC ([4]; isolate 89532.2, metronidazole-insensitive, aerobic): 2000 IU/ml
MLC ([4]; isolate 89532.2, metronidazole-insensitive, anaerobic): 2000 IU/ml
MLC ([4]; isolate 90576, metronidazole-insensitive, aerobic): 2500 IU/ml
MLC ([4]; isolate 90576, metronidazole-insensitive, anaerobic): 2000 IU/ml
MLC ([4]; isolate CDC85, metronidazole-insensitive, aerobic): 1500 IU/ml
MLC ([4]; isolate CDC85, metronidazole-insensitive, anaerobic): 2000 IU/ml
MLC ([4]; isolate IR78, metronidazole-insensitive, aerobic): 2000 IU/ml
MLC ([4]; isolate IR78, metronidazole-insensitive, anaerobic): 2000 IU/ml
MLC ([4]; isolate PHLS289, metronidazole-insensitive, aerobic): 2000 IU/ml
MLC ([4]; isolate PHLS289, metronidazole-insensitive, anaerobic): 2500 IU/ml
MLC ([4]; isolate STH-1, metronidazole-insensitive, aerobic): 2000 IU/ml
MLC ([4]; isolate STH-1, metronidazole-insensitive, anaerobic): 2000 IU/ml
MLC ([4]; isolate UCH-1, metronidazole-sensitive, aerobic): 2000 IU/ml
MLC ([4]; isolate UCH-1, metronidazole-sensitive, anaerobic): 2000 IU/ml
MLC ([4]; isolate UCH-2, metronidazole-sensitive, aerobic): 2500 IU/ml
MLC ([4]; isolate UCH-2, metronidazole-sensitive, anaerobic): 2500 IU/ml
MLC ([4]; isolate UCH-M1, metronidazole-sensitive, aerobic): 2000 IU/ml
MLC ([4]; isolate UCH-M1, metronidazole-sensitive, anaerobic): 2000 IU/ml
MLC ([4]; isolate UOB-1, metronidazole-sensitive, aerobic): 2000 IU/ml
MLC ([4]; isolate UOB-1, metronidazole-sensitive, anaerobic): 2000 IU/ml
MLCs ([4]; span over metronidazole-sensitive isolates, converted from IU/ml): 21.44-35.71 mg/mi
MICs [5]: 28.6 to 35.7 mg/mL
MLC (first of the two columns per drug) [5, 8]: 2500 IU/ml and 2000 IU/ml
MLC (second of the two columns per drug) [5, 8]: > 3500 IU/ml
MLC ([6]; isolate 121, aerobic): 28 mg/mL (≈ 19.7 mM)
MLC ([6]; isolate 121, anaerobic): 28 mg/mL (≈ 19.7 mM)
MLC ([6]; isolate 138, aerobic): 28 mg/mL (≈ 19.7 mM)
MLC ([6]; isolate 138, anaerobic): 28 mg/mL (≈ 19.7 mM)
MLC ([6]; isolate ATCC 30166, aerobic): 28 mg/mL (≈ 19.7 mM)
MLC ([6]; isolate ATCC 30166, anaerobic): 28 mg/mL (≈ 19.7 mM)
MLC ([6]; isolate FT.3741, aerobic): 28 mg/mL (≈ 19.7 mM)
MLC ([6]; isolate FT.3741, anaerobic): 28 mg/mL (≈ 19.7 mM)
MLC ([6]; isolate S10, aerobic): 28 mg/mL (≈ 19.7 mM)
MLC ([6]; isolate S10, anaerobic): 28 mg/mL (≈ 19.7 mM)
MLC ([6]; isolate TF.7, aerobic): 28 mg/mL (≈ 19.7 mM)
MLC ([6]; isolate TF.7, anaerobic): 28 mg/mL (≈ 19.7 mM)
MIC ([7]; T. vaginalis isolate 1910): 10.00 mg/mL
MIC ([7]; T. vaginalis isolate UCH1): 10.00 mg/mL

Reference: patent US5300491A, “Treatment of protozoal infection” (priority 1992, dated 1994)
